“Also recorded” adds a separate entry of the source.

In test [1] the target is T1, dynamin I (Ovis aries, UniProt A0ACI6NZN1). As to the kind of experiment: Dynamin I GTPase assay ([γ-32P]GTP hydrolysis). Format: biochemical, sheep. As for the experimental part: (§1) The plasmid for GST-Amph2-SH3 (muscle Amph2) (Butler et al., 1997) was provided by Pieto DeCamilli, Yale, Connecticut, USA, in pGEX2T vectors. The plasmid was grown in E. coli and the GST-Amph2-SH3 fusion protein was purified on glutathione (GSH)-Sepharose by elution with 10 mM reduced GSH in 20 mM Tris-HCl, pH 7.5, dialysed against the same buffer without GSH and stored at 4° C. Dynamin was purified from sheep brain by extraction from the peripheral membrane fraction of whole brain (Robinson et al., 1993) and affinity purification on GST-Amph2-SH3-sepharose as previously described (Marks and McMahon., 1998), yielding 8 mg protein from 250 g sheep brain. Recombinant dynamin II was expressed in insect cells and was a gift from Dr Sandra Schmid (Scripps, San Diego, Calif.). Recombinant dynamin I lacking the PH domain (dynamin PH, provided by Robin Scaife) was expressed in insect cells using baculoviral infection (Salim et al., 1996).
T1 sequence (A0ACI6NZN1 entry or part of it): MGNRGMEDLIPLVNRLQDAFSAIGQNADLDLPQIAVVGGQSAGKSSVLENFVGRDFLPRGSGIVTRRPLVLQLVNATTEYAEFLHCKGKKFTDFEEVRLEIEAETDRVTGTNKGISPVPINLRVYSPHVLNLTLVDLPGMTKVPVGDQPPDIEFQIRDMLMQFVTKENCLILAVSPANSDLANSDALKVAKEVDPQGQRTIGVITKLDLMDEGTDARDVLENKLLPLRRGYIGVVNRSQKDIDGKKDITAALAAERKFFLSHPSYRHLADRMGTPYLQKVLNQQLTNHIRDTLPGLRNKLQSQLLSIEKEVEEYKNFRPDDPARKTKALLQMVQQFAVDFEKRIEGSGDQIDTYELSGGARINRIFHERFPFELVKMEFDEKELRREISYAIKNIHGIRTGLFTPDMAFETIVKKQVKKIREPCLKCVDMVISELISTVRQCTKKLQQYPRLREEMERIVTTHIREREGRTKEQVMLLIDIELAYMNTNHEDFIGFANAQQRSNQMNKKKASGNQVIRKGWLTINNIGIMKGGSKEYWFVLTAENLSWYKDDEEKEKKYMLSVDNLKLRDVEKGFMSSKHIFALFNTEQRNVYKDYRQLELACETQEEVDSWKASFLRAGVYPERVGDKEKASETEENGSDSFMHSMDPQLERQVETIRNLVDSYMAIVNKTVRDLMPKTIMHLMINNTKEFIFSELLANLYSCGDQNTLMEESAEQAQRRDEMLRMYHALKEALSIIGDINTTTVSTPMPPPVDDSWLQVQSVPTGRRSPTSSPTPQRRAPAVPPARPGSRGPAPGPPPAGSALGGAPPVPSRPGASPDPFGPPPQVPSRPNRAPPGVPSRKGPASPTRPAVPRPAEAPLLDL
(§2) Dynamin GTPase activity was determined by hydrolysis of [ ? -^32P]GTP by a method modified from that described previously (Robinson et al., 1993). Briefly, purified dynamin I or dynamin II (0.2 μg/tube) was incubated in GTPase buffer (10 mM Tris, 10 mM NaCl, 2 mM Mg^2+, 0.05% Tween 80, pH 7.4, 1 μg/ml leupeptin and 0.1 mM PMSF) and a GTP cocktail containing 0.3 mM GTP and 1.3 μCi [ ? -^32P]-GTP in the presence or absence of varying concentrations of inhibitors or DMSO vehicle for 10 min at 30 C. The final assay volume was 40 μl. Dynamin activity was measured as either basal or phospholipid-stimulated with the addition of 5 μg/ml L-phosphatidylserine. The reaction was terminated with 100 μl of GTPase stop buffer (2% formic add, 8% acetic acid, pH 1.9), followed by 600 μl of acid-washed charcoal solution (7% charcoal in acidic solution (w/v)) and 100 μl BSA (5 mg/ml). After centrifuging for 5 min (13,000 rpm at room temperature), 200 μl of each supernatant was counted in a -counter for the release of ^32Pi from [ ? -^32P]-GTP.

The subject of the next test is dynamin II. As to the kind of experiment: [α-32P]-GTP binding assay, dynamin II. On the procedure: (§3) The [α-^32P]-GTP-binding assay was performed in the wells of a 96-well microtitre plate. Dynamin (0.2 μg/well) was added to GTPase buffer and incubated for 10 min at 4 C in the dark. [α-^32P]-GTP (2 μCi/tube) was then added to the reaction and incubated for a further 10 min at 4 C. in the dark. The microtitre plate was then irradiated with a short wavelength ultraviolet lamp at […] for 30 min at a distance of 8 cm. The specificity of photolabelling was determined by comparing the labelling in the presence and absence of 1 mM cold GTP. Samples were then applied to nitrocellulose membranes by aspiration through the wells of a 24 well slot blotter. The nitrocellulose was washed 3 times with PBS and dried. Bound nucleotide was detected by a phosphorimager (Molecular Dynamics).

Test [2] has as its target T1, dynamin I. As to the kind of experiment: [α-32P]-GTP binding assay, dynamin I. More on the design: species or system sheep. On the procedure:
as §3

The next test concerns ΔPH domain dynamin I. As to the kind of experiment: GTPase assay with recombinant dynamin I lacking the PH domain. Format: biochemical. As for the experimental part:
as §1
as §2, with “-^32P]-GTP. […]” for “-^32P]-GTP.”

The subject of test [3] is isolated nerve terminals (synaptosomes). As to the kind of experiment: Glutamate release assay (exocytosis) in synaptosomes. Format: cell-based, rat. To be noted: 30 mM KCl. On the procedure: The glutamate release assay was performed using enzyme-linked fluorescent detection of released glutamate (Cousin and Robinson., 2000a, b). Briefly, synaptosomes (0.6 mg in 2 ml) were resuspended in either plus (1.2 mM CaCl2) or minus (1 mM EGTA) Ca^2+ Krebs-like solution (118.5 mM NaCl, 4.7 mM KCl, 1.18 mM MgCl2, 0.1 mM Na2HPO4, 20 mM Hepes, 10 mM glucose, pH 7.4) at 37° C. Experiments were started after addition of 1 mM NADP^+. After 1 minute 50 U of glutamate dehydrogenase was added and the synaptosome suspension was stimulated after 4 minutes with 30 mM KCl. Increases in fluorescence due to production of NADPH were monitored in a Perkin-Elmer LS-50B spectrofluorimeter at 340 nm excitation and 460 nm emission. Experiments were standardised by the addition of 4 nmol of glutamate. Data is presented as Ca^2+-dependent glutamate release, calculated as the difference between release in plus and minus Ca^2+ solution for identical stimulation conditions.

A further test deals with T2, Rab3A (Homo sapiens, UniProt P20336).
T2 sequence (P20336 1-220): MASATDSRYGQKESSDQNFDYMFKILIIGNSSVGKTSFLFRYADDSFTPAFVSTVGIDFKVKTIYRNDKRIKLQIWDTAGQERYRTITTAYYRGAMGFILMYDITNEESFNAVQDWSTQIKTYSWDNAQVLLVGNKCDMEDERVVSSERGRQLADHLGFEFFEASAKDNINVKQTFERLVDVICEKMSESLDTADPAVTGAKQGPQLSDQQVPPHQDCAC
As to the kind of experiment: [α-32P]-GTP binding to small G protein Rab3A. To be noted: data not shown. On the procedure:
(§4) Competition of these drugs with GTP for the active site of 4 small G proteins (Rab3A, Ras, Arf2, RalA) was also tested.

In the next test the target is T3, RalA (Homo sapiens, UniProt P11233).
T3 sequence (P11233 1-206): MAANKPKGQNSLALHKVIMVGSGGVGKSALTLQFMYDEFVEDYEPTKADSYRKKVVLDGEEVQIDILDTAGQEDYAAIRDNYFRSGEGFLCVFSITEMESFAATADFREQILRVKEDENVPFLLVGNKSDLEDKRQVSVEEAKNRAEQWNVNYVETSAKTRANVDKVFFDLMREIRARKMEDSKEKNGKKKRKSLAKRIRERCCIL
As to the kind of experiment: [α-32P]-GTP binding to small G protein RalA. To be noted: data not shown. As for the experimental part: as §4

The subject of the next test is HER14 cells. As to the kind of experiment: Texas Red-transferrin uptake in HER14 cells. Type of test: cell-based. The conditions noted are these: drug added 15 or 60 minutes before Tf-TxR. As for the experimental part: (§5) Transferrin (Tf) uptake was analysed in Swiss 3T3 and HER14 cells based on methods previously described (van der Bliek et al., 1993). Briefly, cells were plated to 60% confluency in DMEM medium plus 10% foetal calf serum after which the cells were incubated overnight (8-10 hours) in DMEM minus foetal calf serum. Texas red-transferrin (Tf-TxR, Molecular Probes, Oregon) was added to a final concentration of 5 μg/ml and the cells incubated at 37° C. for 10 minutes. Cell surface staining was removed by incubating the cells in an ice cold acid wash solution (0.2 M acetic acid +0.5 M NaCl, pH 2.8) for 15 minutes. Cells were immediately fixed with 4% paraformaldehyde for 10 minutes then washed 3 times with PBS. Nuclei were stained using DAPI (Molecular Probes, Oregon). Slides were mounted using DABCO and the fluorescence was monitored using a Leica DMLB bright field microscope and SPOT digital camera.

Another test deals with Arf2. As to the kind of experiment: [α-32P]-GTP binding to small G protein Arf2. The conditions noted are these: data not shown. On the procedure:
as §4

For test [4], the system named is isolated nerve terminals (synaptosomes). As to the kind of experiment: Synaptic vesicle endocytosis, FM2-10 uptake in synaptosomes. Format: cell-based, rat. The conditions noted are these: 100 μM. As for the experimental part:
Isolated nerve terminals (synaptosomes) were prepared from rat cerebral cortex by centrifugation on discontinuous percoll gradients (Dunkley et al., 1986). Fractions 3 and 4 were pooled and used in all experiments. Endocytosis was measured using uptake of the fluorescent dye FM2-10 as previously described (Cousin and Robinson 2000a). Synaptosomes (0.6 mg in 2 ml) were incubated for 5 min at 37° C. in plus or minus Ca^2+ Krebs-like solution. FM2-10 ([…]) was added 1 min before stimulation with 30 mM KCl (S1). As FM2-10 is taken up by vesicles via endocytosis at the S1 phase of stimulation, synaptosomes were incubated with antagonists during this phase. […] After 2 min of stimulation synaptosomes were washed twice in plus Ca^2+ solution containing 1 mg/ml bovine serum albumin. The washing steps remove non-internalised FM2-10 and the tyrphostins. Washed synaptosomes were resuspended in plus Ca^2+ solution at 37° C., transferred to a fluorimeter cuvette and stimulated with a standard addition of 30 mM KCl (S2). The standard S2 stimulation releases all accumulated FM2-10 and allows endocytosis to be measured as the decrease in FM2-10 fluorescence due to dye release into solution (excitation 488 nm, emission 540 nm).
Endocytosis was calculated as the decrease in absolute fluorescence stimulated by 30 mM KCl at S2. […] Retrieval efficiency is a more accurate measure of endocytosis since it takes into account the amount of prior exocytosis. Retrieval efficiency was calculated as endocytosis/exocytosis, where endocytosis is defined as above and exocytosis as Ca^2+-dependent glutamate release after 2 min of stimulation. The retrieval efficiency value was normalised to a ratio of 1.0 for 30 mM KCl.

The next test concerns Swiss 3T3 cells. As to the kind of experiment: Texas Red-transferrin uptake in Swiss 3T3 cells. Type of test: cell-based. To be noted: drug added 15 or 60 minutes before Tf-TxR. On the procedure: as §5
A further test concerns Ras. As to the kind of experiment: [α-32P]-GTP binding to small G protein Ras. The conditions noted are these: data not shown. As for the experimental part: as §4

For `O[C@H](CS)[C@H](O)CS` (racemic) [Dithiothreitol, dithiothreitol], the “effect on dynamin GTPase activity” value at dynamin I [1] (alone, data not shown) is “without effect”.

As for `CN(C)CCCn1cc(C2=C(c3c[nH]c4ccccc34)C(=O)NC2=O)c2ccccc21` [BIM I], the “[α-32P]-GTP binding to dynamin II in the presence of drug” value in the test on dynamin II was “compete with GTP”. At dynamin I [2], the “[α-32P]-GTP binding to dynamin I in the presence of drug” value was “compete with GTP”. Besides, the “ability to inhibit GTPase activity of dynamin I lacking the PH domain” value with ΔPH domain dynamin I is given as “lost its ability to inhibit”.

A word on the IC50: it is the point on the concentration scale where inhibition reaches its midpoint. A lower IC50 goes with inhibition by little substance. For the compound `COc1cc(C=C(C#N)C(=O)NCCCNC(=O)C(C#N)=Cc2cc(O)c(O)c(OC)c2)cc(O)c1O` [Compound 24, 2-Cyano-N-{3-[2-cyano-3-(3,4-dihydroxy-methoxyphenyl)-acryloylamino]-propyl}-3-(3,4-dihydroxy-5-methoxyphenyl)-acrylamide], half-maximal inhibition against dynamin I [1] (library 1 (dimeric) compounds) (IC50) required 5 ± 1 µM.

On to `N#C/C(=C\c1ccc(O)c(O)c1)C(=O)N1CCN(C(=O)/C(C#N)=C/c2ccc(O)c(O)c2)CC1` [Compound 71], for which the dynamin inhibition result on dynamin I [1] (screen at ≦100 μM) is “no dynamin inhibition”.

Regarding `N#C/C(=C\c1ccc(O)c(O)c1)C(N)=S` [tyrphostin A47], the “exocytosis (Ca2+-dependent glutamate release)” value in test [3] is on record as “no effect”. Moreover, at Rab3A, the “effect on [α-32P]-GTP binding to Rab3A” value was “neither drug affected”. In addition, at RalA, the “effect on [α-32P]-GTP binding to RalA” value is listed as “neither drug affected”. Besides, in the test with HER14 cells, the “internalisation of texas-red labelled transferrin into HER14 cells” value is “not as dramatically as bis-tyrphostin”. For the same compound, the “effect on [α-32P]-GTP binding to Arf2” value with Arf2 was “neither drug affected”. Besides, the “inhibition of synaptic vesicle endocytosis (SVE)” value in test [4] (synaptosomes) is recorded as “did not”. Moreover, the “retrieval efficiency (endocytosis/exocytosis)” value in test [4] (1 indicates no drug effect) is on record as 0.95 (±0.05). The “inhibitory potency on dynamin” value at dynamin I [1] (freshly prepared solutions) is reported as “no inhibitory potency”; against dynamin I [1] (stocks kept at room temperature for 24 hrs) it was “weak potency”. Further, the “internalisation of texas-red labelled transferrin into Swiss 3T3 cells” value in the test on Swiss 3T3 cells is reported as “not as dramatically as bis-tyrphostin”. Besides, the “[α-32P]-GTP binding to dynamin I in the presence of drug” value at dynamin I [2] was “not seen to decrease; also recorded: not affected”. Also, the “effect on [α-32P]-GTP binding to Ras” value in the test on Ras is given as “neither drug affected”.

(Values after US20070225363A1, “Methods and Agents for Inhibiting Dynamin-Dependent Endocytosis” (the University of Newcastle Research Associates Ltd., priority 2003, published 2007).)
